Measurements taken from publication PMC7155171, “Probing the Open Global Health Chemical Diversity Library for Multistage-Active Starting Points for Next-Generation Antimalarials” (ACS Infectious Diseases, 2020).

Columns and labels:
[1] = target: recombinant firefly luciferase (Photinus pyralis, UniProt P08659); assay: biochemical; conditions: dose response; for Emax: maximum inhibition, read-out: rLuc inhibition dose response: Maximum inhibition (%); for IC50: read-out: rLuc inhibition dose response: IC50
Chain of recombinant firefly luciferase (P08659 whole entry): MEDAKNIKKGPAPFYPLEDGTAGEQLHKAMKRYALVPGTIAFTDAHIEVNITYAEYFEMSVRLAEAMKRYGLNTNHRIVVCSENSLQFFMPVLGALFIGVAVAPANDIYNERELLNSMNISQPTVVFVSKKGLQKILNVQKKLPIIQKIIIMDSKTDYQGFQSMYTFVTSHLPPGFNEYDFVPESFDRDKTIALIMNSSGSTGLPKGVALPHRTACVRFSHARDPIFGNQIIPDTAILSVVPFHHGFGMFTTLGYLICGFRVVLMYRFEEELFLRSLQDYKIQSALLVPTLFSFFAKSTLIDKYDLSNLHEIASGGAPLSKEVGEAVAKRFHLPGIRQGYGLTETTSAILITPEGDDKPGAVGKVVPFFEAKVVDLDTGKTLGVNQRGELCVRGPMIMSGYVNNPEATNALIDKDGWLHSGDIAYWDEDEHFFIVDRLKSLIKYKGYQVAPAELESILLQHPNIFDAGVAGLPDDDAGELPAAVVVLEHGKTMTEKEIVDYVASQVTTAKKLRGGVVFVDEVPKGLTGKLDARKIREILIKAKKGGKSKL

[2] = HepG2 cytotoxicity screening (CellTiter-Glo); conditions: human, uninfected HepG2-A16-CD81 (EGFP) hepatocytes
[3] = test system: HepG2-A16-CD81 hepatocytes; assay: HepG2 cytotoxicity screening (CellTiter-Glo); conditions: for HepG2 cytotoxicity 12pt dose response: Maximum inhibition (%): 12pt dose response
[4] = test system: P. berghei liver stage (PbLuc); assay: P. berghei luciferase liver stage (PbLuc) assay in HepG2-A16-CD81 hepatocytes; format: cell-based, Plasmodium berghei; conditions: Plasmodium berghei; for IC50: HepG2-A16-CD81, 12pt dose response, read-out: PbLuc 12pt dose response: IC50; for Emax: HepG2-A16-CD81, 48 h, 12pt dose response, maximum inhibition

Cc1cn2c(n1)C(CNCC1=Cc3ccccc3OC1)CCC2 (centres unmarked) [UCSD-0812993]
Emax [1]: 66.8%
IC50 [1]: > 25 µM
IC50 [2]: > 25 µM
HepG2 Cytotoxicity primary screen (2uM): % Inhibition [3]: -0.92%
HepG2 cytotoxicity 12pt dose response: Maximum inhibition (%) [3]: 24.6%
IC50 [4]: > 2.78 µM
Emax [4]: 93.1%

Clc1ccc(-c2ccc(C3CNCCO3)nc2)cc1 (centres unmarked) [UCSD-0802213]
Emax [1]: 95.9%
IC50 [1]: 0.0623 µM
IC50 [2]: > 25 µM
inhibition at 2 µM [2]: 18.1%
HepG2 cytotoxicity 12pt dose response: Maximum inhibition (%) [3]: -1.02%
IC50 [4]: < 0.000141 µM

CC(C)(C)OC(=O)N1CCCN(Cc2ccon2)c2ccccc21 [UCSD-0805052]
Emax [1]: 18.4%
IC50 [1]: > 25 µM
IC50 [2]: > 25 µM
inhibition at 2 µM [2]: 10.4%
HepG2 cytotoxicity 12pt dose response: Maximum inhibition (%) [3]: 13.5%
IC50 [4]: 8.56 µM
Emax [4]: 93.5%

c1ccc(-c2ccc(C3CNCCO3)nc2)cc1 (centres unmarked) [UCSD-0839460]
Emax [1]: 89.9%
IC50 [1]: 0.22 µM
IC50 [2]: > 25 µM
HepG2 Cytotoxicity primary screen (2uM): % Inhibition [3]: 6.27%
HepG2 cytotoxicity 12pt dose response: Maximum inhibition (%) [3]: -1.08%
IC50 [4]: < 0.000141 µM
Emax [4]: 80.4%

Cn1cnc2c1CCN(Cc1csc(-c3ccccc3F)n1)C2 [UCSD-0598805]
Emax [1]: 81.2%
IC50 [1]: 15 µM
IC50 [2]: > 25 µM
inhibition at 2 µM [2]: 0.19%
HepG2 cytotoxicity 12pt dose response: Maximum inhibition (%) [3]: 6.01%
IC50 [4]: < 0.000141 µM
Emax [4]: 84.3%

Cc1ncc(C(=O)NC2CCN(CCOc3ccc(Br)cc3)CC2)s1 [UCSD-0818166]
Emax [1]: 32.8%
IC50 [1]: > 25 µM
IC50 [2]: > 25 µM
inhibition at 2 µM [2]: 1.78%
HepG2 cytotoxicity 12pt dose response: Maximum inhibition (%) [3]: 7.96%
IC50 [4]: 15.8 µM
Emax [4]: 96.5%

Cc1ccc(Sc2ccc(CN3CCC4(CCCNC4=O)C3)o2)cc1 (centres unmarked) [UCSD-0825128]
Emax [1]: 21.8%
IC50 [1]: > 25 µM
IC50 [2]: > 25 µM
HepG2 Cytotoxicity primary screen (2uM): % Inhibition [3]: -4.20%
HepG2 cytotoxicity 12pt dose response: Maximum inhibition (%) [3]: 8.34%
IC50 [4]: 14.7 µM
Emax [4]: 95%

COCCCNC1N=C(n2nc(C)cc2C)Nc2sc3c(c21)CCCC3 (centres unmarked) [UCSD-0796603]
Emax [1]: 17.3%
IC50 [1]: > 25 µM
IC50 [2]: > 25 µM
HepG2 Cytotoxicity primary screen (2uM): % Inhibition [3]: 2.66%
HepG2 cytotoxicity 12pt dose response: Maximum inhibition (%) [3]: -1.93%
IC50 [4]: 4.36 µM
Emax [4]: 98.7%

COc1c(C)cnc(CN2CCC(N(C)C(C)C(N)=O)CC2)c1C (centres unmarked) [UCSD-0844796]
Emax [1]: -2.93%
IC50 [1]: > 25 µM
IC50 [2]: > 25 µM
HepG2 Cytotoxicity primary screen (2uM): % Inhibition [3]: 1.63%
HepG2 cytotoxicity 12pt dose response: Maximum inhibition (%) [3]: -0.307%
IC50 [4]: 11.7 µM
Emax [4]: 87.4%

CCOC(=O)N1CCN(c2nc(CCN)nc3sc(C)c(C)c23)CC1 [UCSD-0834429]
Emax [1]: 5.96%
IC50 [1]: > 25 µM
IC50 [2]: > 25 µM
inhibition at 2 µM [2]: -5.69%
inhibition at 10 µM [2]: -49.3%
HepG2 cytotoxicity 12pt dose response: Maximum inhibition (%) [3]: 28%
IC50 [4]: 8.74 µM
Emax [4]: 87.7%

CCc1nc(CN2CCN(c3ncnc4cc(F)ccc34)CC2)no1 [UCSD-0819439]
Emax [1]: 3.14%
IC50 [1]: > 25 µM
IC50 [2]: 6.37 µM
inhibition at 2 µM [2]: 13.2%
HepG2 cytotoxicity 12pt dose response: Maximum inhibition (%) [3]: 64.7%
IC50 [4]: 2.76 µM
Emax [4]: 95.7%

CC(C)(C)NC(=O)N1CCC(Oc2ccc(C(F)(F)F)cn2)CC1 [UCSD-0787817]
Emax [1]: 13%
IC50 [1]: > 25 µM
IC50 [2]: > 25 µM
HepG2 Cytotoxicity primary screen (2uM): % Inhibition [3]: -4.73%
HepG2 cytotoxicity 12pt dose response: Maximum inhibition (%) [3]: 16.5%
IC50 [4]: 11.4 µM
Emax [4]: 93.5%

N#Cc1c(Cl)nsc1NCC1(c2ccccc2)CCC1 [UCSD-0818294]
Emax [1]: 16.9%
IC50 [1]: > 25 µM
IC50 [2]: > 25 µM
HepG2 Cytotoxicity primary screen (2uM): % Inhibition [3]: 11.95%
HepG2 cytotoxicity 12pt dose response: Maximum inhibition (%) [3]: 34.3%
IC50 [4]: 13.2 µM
Emax [4]: 98.3%

Cc1noc(NC(=O)c2ccc(OC(F)(F)F)cc2)n1 [UCSD-0844950]
Emax [1]: 29.1%
IC50 [1]: > 25 µM
IC50 [2]: 23.7 µM
inhibition at 2 µM [2]: 4.58%
HepG2 cytotoxicity 12pt dose response: Maximum inhibition (%) [3]: 50.3%
IC50 [4]: 8.23 µM
Emax [4]: 93.2%

O=C(c1ccc(Br)o1)N1CCN(Cc2ccc(OC(F)(F)F)cc2)CC1 [UCSD-0819339]
Emax [1]: 10.9%
IC50 [1]: > 25 µM
IC50 [2]: > 25 µM
inhibition at 2 µM [2]: 0%
HepG2 cytotoxicity 12pt dose response: Maximum inhibition (%) [3]: 57.1%
IC50 [4]: 9.24 µM
Emax [4]: 97.7%

Nc1nccc(N2CCCC(CO)(CCOc3ccccc3)C2)n1 (centres unmarked) [UCSD-0838947]
Emax [1]: 8.22%
IC50 [1]: > 25 µM
IC50 [2]: > 25 µM
inhibition at 2 µM [2]: -2.96%
HepG2 cytotoxicity 12pt dose response: Maximum inhibition (%) [3]: 51.4%
IC50 [4]: 6.46 µM
Emax [4]: 89.7%

CC(C)Cn1ccc2c(NC(=O)c3n[nH]c4c3CCC4)cccc21 [UCSD-0786893]
Emax [1]: 38.5%
IC50 [1]: > 25 µM
IC50 [2]: > 25 µM
HepG2 Cytotoxicity primary screen (2uM): % Inhibition [3]: 3.16%
HepG2 cytotoxicity 12pt dose response: Maximum inhibition (%) [3]: 32.3%
IC50 [4]: 13.6 µM

CCS(=O)(=O)N1CCc2ccc(NC(=O)Nc3cccc(F)c3)cc21 [UCSD-0785772]
Emax [1]: 22.1%
IC50 [1]: > 25 µM
IC50 [2]: 17.8 µM
inhibition at 2 µM [2]: 17.6%
HepG2 cytotoxicity 12pt dose response: Maximum inhibition (%) [3]: 50.2%
IC50 [4]: 9.31 µM
Emax [4]: 90.3%

Fc1ccc(N2CCCN(c3ccc(Cn4ccnc4)cn3)CC2)cc1 [UCSD-0828381]
Emax [1]: 34.7%
IC50 [1]: > 25 µM
IC50 [2]: 23.9 µM
HepG2 Cytotoxicity primary screen (2uM): % Inhibition [3]: 3.83%
HepG2 cytotoxicity 12pt dose response: Maximum inhibition (%) [3]: 52.6%
IC50 [4]: 1.16 µM
Emax [4]: 98.9%

CC(C)(C)n1ncc2c1CCCC2NCc1ccc2c(c1)OCCO2 (centres unmarked) [UCSD-0811309]
Emax [1]: 85%
IC50 [1]: 15 µM
IC50 [2]: > 25 µM
inhibition at 2 µM [2]: -4.43%
HepG2 cytotoxicity 12pt dose response: Maximum inhibition (%) [3]: 2.92%
IC50 [4]: 8.69 µM
Emax [4]: 87%

COc1ccc2cc(C3CN(C(=O)CCNC(C)=O)CCO3)ccc2c1 (centres unmarked) [UCSD-0829391]
Emax [1]: 67.5%
IC50 [1]: 9.9 µM
IC50 [2]: > 25 µM
inhibition at 2 µM [2]: -3.5%
HepG2 cytotoxicity 12pt dose response: Maximum inhibition (%) [3]: 2.45%
IC50 [4]: 0.333 µM
Emax [4]: 85.2%
inhibition at 2 µM ([4]; HepG2-A16-CD81, primary screen, 2 uM): -1.1%

CCCc1cc(=O)[nH]c(-n2nc(C3CC3)cc2N)n1 [UCSD-0786964]
Emax [1]: 12.2%
IC50 [1]: > 25 µM
IC50 [2]: 20.5 µM
inhibition at 2 µM [2]: -26.2%
HepG2 cytotoxicity 12pt dose response: Maximum inhibition (%) [3]: 75.4%
IC50 [4]: 4.69 µM

O=C([C@H]1C[C@@H]2CCN(c3cccc(F)c3)C[C@H]2O1)N1CCCC1 [UCSD-0792262]
Emax [1]: 28.4%
IC50 [1]: > 25 µM
IC50 [2]: > 25 µM
HepG2 Cytotoxicity primary screen (2uM): % Inhibition [3]: 4.38%
IC50 [4]: 10.3 µM
Emax [4]: 93.8%

Cc1ncc(CN2CCOC(c3ccc(-c4ccccc4F)cn3)C2)s1 (centres unmarked) [UCSD-0800928]
Emax [1]: 19.3%
IC50 [1]: > 25 µM
IC50 [2]: > 25 µM
HepG2 Cytotoxicity primary screen (2uM): % Inhibition [3]: -6.23%
HepG2 cytotoxicity 12pt dose response: Maximum inhibition (%) [3]: 36.5%
IC50 [4]: 11.1 µM
Emax [4]: 85.7%

Cc1nc(C(=O)NC2CCN(CCOc3ccc(Br)cc3)CC2)cs1 [UCSD-0818164]
Emax [1]: 32.1%
IC50 [1]: > 25 µM
IC50 [2]: > 25 µM
HepG2 Cytotoxicity primary screen (2uM): % Inhibition [3]: 17.63%
HepG2 cytotoxicity 12pt dose response: Maximum inhibition (%) [3]: 35.2%
IC50 [4]: 13.6 µM
Emax [4]: 98.3%
